Assay results taken from ChEMBL document CHEMBL1201862, “PubChem BioAssay data set” (2004).
The source made the active and inactive calls.

Legend:
NADPH oxidase 1 = NADPH oxidase 1 (Homo sapiens, UniProt Q9Y5S8); format: functional, cell-based;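 further: Cell-based assay with luminescence read-out, IC50 derived from inhibitor dose-response curves; intracellular ROS from endogenous NOX1 in intact HT29 colon cancer cells; potency of inhibitors that lower the ROS luminescence signal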
[1] = molecular target: Inward rectifier potassium channel 2 (Mus musculus, UniProt P35561); test: Manual electrophysiological patch clamp assay for SAR compounds that inhibit/block inward-rectifying potassium ion channel Kir2.1. [Related pubchem assays: 1843 (Summary assay for Kir2.1 inhibitor assays.), 1672 (Primary HTS of 305616 compounds where 2592 were identified as active.)]; format: functional
Sequence of Inward rectifier potassium channel 2 (P35561 whole entry): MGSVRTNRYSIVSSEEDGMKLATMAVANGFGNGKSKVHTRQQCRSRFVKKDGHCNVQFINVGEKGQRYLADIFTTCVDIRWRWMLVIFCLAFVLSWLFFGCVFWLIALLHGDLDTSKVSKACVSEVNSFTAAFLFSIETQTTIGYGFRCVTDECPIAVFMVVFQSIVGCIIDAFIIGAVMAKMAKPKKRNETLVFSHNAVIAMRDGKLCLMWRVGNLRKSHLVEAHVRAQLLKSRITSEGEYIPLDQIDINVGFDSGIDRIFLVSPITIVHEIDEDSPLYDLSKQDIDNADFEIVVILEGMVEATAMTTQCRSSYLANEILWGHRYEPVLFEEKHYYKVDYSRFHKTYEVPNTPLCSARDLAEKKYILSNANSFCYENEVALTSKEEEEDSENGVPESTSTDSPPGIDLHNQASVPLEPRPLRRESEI

[2] = NIH3T3 cell viability loss – ATP luminescence, mouse fibroblasts, counter-screen, dose response (AID 2010); format: functional, cell-based;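 further: cells exposed to compound for about 90 hours before reading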
Protein Wnt-3a = Protein Wnt-3a (Mus musculus, UniProt P27467); test: antagonism of Wnt3a pathway luciferase reporter – Wnt-LIGHT cells, luminescence, selectivity assay for Gli-SUFU antagonist project, dose response (AID 651570); format: functional; conditions: read-out: IC50_Mean;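 further: Wnt-LIGHT reporter cells stimulated with conditioned medium from Wnt3a-producing cells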
Sequence of Protein Wnt-3a (P27467 whole entry): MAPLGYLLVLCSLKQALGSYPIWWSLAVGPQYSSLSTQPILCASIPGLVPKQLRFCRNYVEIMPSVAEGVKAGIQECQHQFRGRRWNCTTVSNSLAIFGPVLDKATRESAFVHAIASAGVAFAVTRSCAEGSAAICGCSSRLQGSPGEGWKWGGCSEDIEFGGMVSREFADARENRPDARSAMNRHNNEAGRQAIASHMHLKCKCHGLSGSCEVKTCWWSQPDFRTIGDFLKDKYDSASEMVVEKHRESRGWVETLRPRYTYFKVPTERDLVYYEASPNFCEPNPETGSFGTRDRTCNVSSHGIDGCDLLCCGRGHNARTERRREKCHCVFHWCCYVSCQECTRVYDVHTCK

Galanin receptor type 3 = molecular target: T1, Galanin receptor type 3 (Homo sapiens, UniProt O60755); test: Fluorescence-based cell-based primary high throughput dose response assay to identify antagonists of the Galanin Receptor 3 (GalR3).; format: functional
T1 sequence (O60755 whole entry): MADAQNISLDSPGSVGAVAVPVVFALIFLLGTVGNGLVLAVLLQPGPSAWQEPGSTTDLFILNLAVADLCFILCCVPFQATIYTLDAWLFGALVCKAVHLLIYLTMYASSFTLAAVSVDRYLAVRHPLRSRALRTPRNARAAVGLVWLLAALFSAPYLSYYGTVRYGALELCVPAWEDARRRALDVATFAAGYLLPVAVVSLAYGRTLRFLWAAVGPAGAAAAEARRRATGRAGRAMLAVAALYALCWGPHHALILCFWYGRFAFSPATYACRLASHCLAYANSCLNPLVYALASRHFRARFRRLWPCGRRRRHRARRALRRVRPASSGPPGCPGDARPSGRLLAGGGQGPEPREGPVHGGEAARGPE

[3] = molecular target: T2, Neuropeptide Y receptor type 2 (Homo sapiens, UniProt P49146); test: IC50 for human NPY-Y2 blockade – cell-based, counter-screen for NPY-Y1 antagonist project, dose response (AID 1278); format: functional
T2 sequence (P49146 whole entry): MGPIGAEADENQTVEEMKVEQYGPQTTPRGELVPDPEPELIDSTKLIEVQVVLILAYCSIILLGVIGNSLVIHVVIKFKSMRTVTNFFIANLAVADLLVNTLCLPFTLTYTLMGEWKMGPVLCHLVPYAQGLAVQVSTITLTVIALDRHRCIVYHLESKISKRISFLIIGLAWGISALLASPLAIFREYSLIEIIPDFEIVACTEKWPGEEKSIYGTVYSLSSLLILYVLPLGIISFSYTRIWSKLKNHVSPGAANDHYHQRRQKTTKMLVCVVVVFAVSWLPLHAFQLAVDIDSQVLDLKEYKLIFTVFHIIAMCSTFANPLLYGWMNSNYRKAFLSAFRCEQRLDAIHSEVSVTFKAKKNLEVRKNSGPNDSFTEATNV

[4] = HEK-293T cell viability reduction – luminescence, B-cell screen hits, cytotoxicity control for BCR NF-kB inhibitor project, dose response (AID 489021); format: functional, cell-based;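 further: HEK-293T cells carrying an NF-kB luciferase reporter; cells exposed to compound for about 14 hours before viability readout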
[5] = Trypanosoma cruzi growth suppression in host cells – NIH3T3 host cells, beta-gal luminescence, confirmation (AID 2044); format: functional, cell-based;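 further: intracellular parasites grown in NIH/3T3 mouse fibroblasts as host cells; luminescent beta-galactosidase reporter signal from transgenic T. cruzi replicating inside host cells; inhibitors lower the luminescence signal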
cells = format: functional, cell-based; conditions: HEK-CNG
[6] = molecular target: T3, Neuropeptide Y receptor type 1 (Homo sapiens, UniProt P25929); test: IC50 of human NPY-Y1 blockers – cell-based, dose response (AID 1277); format: functional
T3 sequence (P25929 whole entry): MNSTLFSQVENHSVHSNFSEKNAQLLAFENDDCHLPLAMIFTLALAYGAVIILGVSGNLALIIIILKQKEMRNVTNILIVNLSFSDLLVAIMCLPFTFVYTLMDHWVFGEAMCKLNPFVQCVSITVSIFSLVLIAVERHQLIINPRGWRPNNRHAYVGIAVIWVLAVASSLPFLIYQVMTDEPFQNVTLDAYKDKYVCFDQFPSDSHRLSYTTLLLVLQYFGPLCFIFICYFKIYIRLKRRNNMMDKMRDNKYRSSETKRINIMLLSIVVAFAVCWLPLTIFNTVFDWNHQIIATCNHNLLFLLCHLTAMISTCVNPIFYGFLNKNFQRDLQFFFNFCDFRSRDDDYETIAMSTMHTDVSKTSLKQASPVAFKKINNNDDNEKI

[7] = NIH-3T3 fibroblast cytotoxicity, dose response, cytotoxicity control, cell-based, fluorescence, Alamar Blue, secondary assay (AID 2327); format: functional;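 further: NIH-3T3 mouse fibroblasts cultured with fluconazole at 8 µg/mL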
INS1 = test: INS-1E survival protection against cytokine death – cell-based, luminescence, retest, dose response (AID 449756); format: functional; conditions: Rattus norvegicus;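 further: cell death triggered by IL-1 beta plus TNF-alpha plus IFN-gamma mixture; protective hits raise ATP signal compared with cytokine alone wells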
[8] = molecular target: T4, Zinc finger protein mex-5 (Caenorhabditis elegans, UniProt Q9XUB2); test: potency of MEX-5 RNA-binding blockers – biochemical, C. elegans, fluorescence polarization, dose response (AID 1960)
T4 sequence (Q9XUB2 whole entry): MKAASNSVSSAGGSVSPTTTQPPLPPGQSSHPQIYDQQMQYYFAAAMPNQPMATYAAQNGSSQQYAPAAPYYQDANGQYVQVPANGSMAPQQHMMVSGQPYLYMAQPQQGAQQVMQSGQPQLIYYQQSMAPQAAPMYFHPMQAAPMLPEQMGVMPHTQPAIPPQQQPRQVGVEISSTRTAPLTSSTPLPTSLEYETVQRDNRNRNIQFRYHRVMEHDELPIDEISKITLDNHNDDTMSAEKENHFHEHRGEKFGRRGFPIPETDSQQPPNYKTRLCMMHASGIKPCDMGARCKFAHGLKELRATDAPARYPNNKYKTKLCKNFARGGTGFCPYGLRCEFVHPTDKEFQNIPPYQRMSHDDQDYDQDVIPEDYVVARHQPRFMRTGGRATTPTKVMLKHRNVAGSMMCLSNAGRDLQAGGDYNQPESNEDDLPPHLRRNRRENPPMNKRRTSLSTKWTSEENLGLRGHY

Estrogen receptor = Estrogen receptor (Homo sapiens, UniProt P03372);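 further: potency for inhibiting coactivator peptide recruitment to the receptor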
Sequence of Estrogen receptor (P03372 whole entry): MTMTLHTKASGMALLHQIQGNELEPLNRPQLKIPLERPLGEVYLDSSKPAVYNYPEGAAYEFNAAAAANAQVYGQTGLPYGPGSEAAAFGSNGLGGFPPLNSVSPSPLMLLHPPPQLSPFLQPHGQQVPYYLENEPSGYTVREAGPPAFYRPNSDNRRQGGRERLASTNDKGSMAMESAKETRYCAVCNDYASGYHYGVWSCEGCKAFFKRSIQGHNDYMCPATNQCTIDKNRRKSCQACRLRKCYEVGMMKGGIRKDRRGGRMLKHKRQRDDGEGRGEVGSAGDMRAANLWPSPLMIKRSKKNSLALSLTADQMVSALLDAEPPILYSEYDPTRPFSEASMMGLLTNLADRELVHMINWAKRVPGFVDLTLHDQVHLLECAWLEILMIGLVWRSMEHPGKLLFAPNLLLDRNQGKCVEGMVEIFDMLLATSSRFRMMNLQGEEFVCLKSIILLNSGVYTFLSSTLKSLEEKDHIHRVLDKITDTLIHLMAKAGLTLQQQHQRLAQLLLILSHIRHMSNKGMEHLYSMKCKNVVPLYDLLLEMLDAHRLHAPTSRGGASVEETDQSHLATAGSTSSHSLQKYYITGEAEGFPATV

Sequence of NADPH oxidase 1 (Q9Y5S8 whole entry): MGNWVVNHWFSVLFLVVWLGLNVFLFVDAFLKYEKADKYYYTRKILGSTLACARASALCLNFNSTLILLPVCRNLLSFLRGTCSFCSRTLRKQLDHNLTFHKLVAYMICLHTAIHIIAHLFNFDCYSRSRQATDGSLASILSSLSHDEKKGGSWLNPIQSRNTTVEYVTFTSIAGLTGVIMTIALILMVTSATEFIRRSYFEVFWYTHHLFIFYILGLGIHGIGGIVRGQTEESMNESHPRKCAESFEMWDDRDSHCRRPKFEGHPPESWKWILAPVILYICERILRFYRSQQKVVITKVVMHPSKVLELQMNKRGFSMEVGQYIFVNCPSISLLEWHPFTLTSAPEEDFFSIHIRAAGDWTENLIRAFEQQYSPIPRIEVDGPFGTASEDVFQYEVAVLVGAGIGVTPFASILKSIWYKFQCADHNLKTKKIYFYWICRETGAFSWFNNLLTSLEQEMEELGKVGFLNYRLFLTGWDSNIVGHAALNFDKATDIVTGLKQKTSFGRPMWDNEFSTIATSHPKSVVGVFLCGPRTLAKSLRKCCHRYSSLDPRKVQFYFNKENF

CC(O)c1ccc2c(c1)Nc1ccccc1S2 (centres undefined)
IC50 (NADPH oxidase 1): 0.363 µM (active)

COc1ccc(CNCc2ccc(OC(F)(F)F)cc2)cc1
IC50 [1]: 1.64 µM (active)

COc1ccc(-[n+]2c(-c3ccc(Cl)cc3)cn3c2CCc2ccccc2-3)cc1
EC50 [2]: > 60 µM (not active) | IC50 (Protein Wnt-3a): 25.6 µM (inactive) | IC50 (Galanin receptor type 3): 5.02 µM (active) | IC50 [3]: 10.3 µM (not active) | IC50 [4]: > 80 µM (inactive) | EC50 [5]: 0.24 µM (active) | EC50 (cells): > 29.9 µM (inactive) | IC50 [6]: 7.36 µM (active) | EC50 [7]: > 150 µM (inactive) | AC50 (INS1): 2.08 µM (active)

Cc1cc(/C=C2/C(=O)NC(=O)N(c3ccccc3)C2=O)c(C)n1-c1ccc(F)cc1
EC50 [8]: 77.3 µM (active) | IC50 (Estrogen receptor): > 50 µM (not active)
